Reference: patent US11845724B2, “USP30 inhibitors and uses thereof” (Vincere Biosciences, Inc., priority 2019, dated 2023)
Read-outs that look alike come from different tables or passages of the source.

Key:
[1] = biological target: recombinant USP30 (amino acids 57-517 of the human sequence) (Homo sapiens (Human), UniProt Q70CQ3); experiment: In vitro USP30 biochemical assay (Ubiquitin-Rhodamine)
USP30 = USP30 (Homo sapiens (Human), UniProt Q70CQ3); experiment: Dundee MALDI-TOF mass spectrometry assay (IC50); assay type: biochemical; conditions: USP30 25 ng/μl, K48-linked diubiquitin 5.6 μM, avg, read-out: Dundee IC50 μM (avg in vitro MS assay)
USP30, sequence (Q70CQ3 whole entry): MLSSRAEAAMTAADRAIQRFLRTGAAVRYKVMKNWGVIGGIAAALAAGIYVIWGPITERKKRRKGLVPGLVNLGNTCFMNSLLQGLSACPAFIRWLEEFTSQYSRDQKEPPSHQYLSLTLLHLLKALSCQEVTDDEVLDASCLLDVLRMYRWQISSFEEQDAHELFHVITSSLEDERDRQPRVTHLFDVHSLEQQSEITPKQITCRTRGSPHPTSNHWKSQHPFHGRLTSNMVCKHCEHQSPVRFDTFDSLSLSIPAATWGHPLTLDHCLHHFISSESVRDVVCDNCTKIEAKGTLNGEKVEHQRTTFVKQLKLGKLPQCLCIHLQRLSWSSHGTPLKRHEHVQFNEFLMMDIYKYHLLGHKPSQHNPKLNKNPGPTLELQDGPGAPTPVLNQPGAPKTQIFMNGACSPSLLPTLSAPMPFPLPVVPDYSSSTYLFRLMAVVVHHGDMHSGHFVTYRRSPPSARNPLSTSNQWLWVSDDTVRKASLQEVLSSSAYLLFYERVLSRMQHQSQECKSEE
Description: Compounds were tested in a MALDI-TOF assay based on the paper by Ritorto et al. (Ritorto et al. Screening of DUB activity and specificity by MALDI-TOF mass spectrometry. Nat. […] USP30 (25 ng/μl) tested against K48-linked diubiquitin (5.6 μM). USP30 was diluted in a buffer containing 40 mM Tris, 0.01% BSA, 1 mM DTT and K48 in 40 mM Tris, 0.01% BSA. The compounds were pre-incubated with the USP30 for 5 mins at room temp before the K48 dimer addition. The assay mixture was then incubated for 45 mins at room temp. The assay was stopped by the addition of TFA to a final concentration of 2% (v/v). […] Then 250 nl of these solutions were spotted onto an MTP AnchorChip 1,536 TF and this is analysed on the Bruker rapifleX MALDI-TOF.

[2] = USP30 IC50 μM (avg), Ubiquitin-Rhodamine substrate 25 nM, 1.5 nM recombinant USP30
[3] = read-out: USP30 IC50 μM (avg), Ubiquitin-Rhodamine substrate 25 nM, 1.5 nM recombinant USP30

recombinant USP30 (amino acids 57-517 of the human sequence), sequence (Q70CQ3 57-517): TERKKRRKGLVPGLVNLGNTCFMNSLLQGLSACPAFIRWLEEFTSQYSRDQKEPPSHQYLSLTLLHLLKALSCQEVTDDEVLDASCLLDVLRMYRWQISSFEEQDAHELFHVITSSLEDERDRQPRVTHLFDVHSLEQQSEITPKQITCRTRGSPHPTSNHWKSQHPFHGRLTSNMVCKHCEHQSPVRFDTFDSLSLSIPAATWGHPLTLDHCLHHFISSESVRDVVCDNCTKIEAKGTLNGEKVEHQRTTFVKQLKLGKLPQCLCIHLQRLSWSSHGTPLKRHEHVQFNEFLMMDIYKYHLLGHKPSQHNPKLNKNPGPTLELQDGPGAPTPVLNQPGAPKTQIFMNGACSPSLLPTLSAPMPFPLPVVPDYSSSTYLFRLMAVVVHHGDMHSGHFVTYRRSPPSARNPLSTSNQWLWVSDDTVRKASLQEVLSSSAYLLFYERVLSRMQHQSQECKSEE

Row | SMILES | IC50 [1, 2] | IC50 (USP30) | IC50 [1, 3]
1 | COCCNS(=O)(=O)c1ccc(NC(=O)[C@H](Cc2ccccc2)NC(=O)c2ccc(F)cc2)cc1OC [Compound I-151, (S)-4-fluoro-N-(1-(3-methoxy-4-(N-(2-methoxyethyl)sulfamoyl)phenylamino)-1-oxo-3-phenylpropan-2-yl)benzamide] | 0.05 to 1 µM | < 0.05 µM | –
2 | CC(C)(C)OCCNS(=O)(=O)c1ccc(NC(=O)[C@H](Cc2ccccc2)NC(=O)c2ccc(F)cc2)cn1 [Compound I-114, (S)-N-(1-(6-(N-(2-tert-butoxyethyl)sulfamoyl)pyridin-3-ylamino)-1-oxo-3-phenylpropan-2-yl)-4-fluorobenzamide] | 0.05 to 1 µM | 0.05 to 1 µM | –
3 | CCNS(=O)(=O)c1ccc(NC(=O)[C@H](Cc2ccccc2)NC(=O)c2ccc(F)cc2)c(F)c1 [Compound I-157, (S)-N-(1-(4-(N-ethylsulfamoyl)-2-fluorophenylamino)-1-oxo-3-phenylpropan-2-yl)-4-fluorobenzamide] | 0.05 to 1 µM | 0.05 to 1 µM | –
4 | O=C(N[C@@H](Cc1ccccc1)C(=O)Nc1ccc(S(=O)(=O)NC23CC(C2)C3)cc1)c1ccccn1 [Compound I-76, (S)-N-(1-(4-(N-bicyclo[1.1.1]pentan-1-ylsulfamoyl)phenylamino)-1-oxo-3-phenylpropan-2-yl)picolinamide] | 1 to 10 µM | 0.05 to 1 µM | –
5 | O=C(N[C@@H](Cc1ccccn1)C(=O)Nc1ccc(S(=O)(=O)NC23CC(C2)C3)cc1)c1ccc(F)cc1 [Compound I-141, (S)-N-(1-(4-(N-bicyclo[1.1.1]pentan-1-ylsulfamoyl)phenylamino)-1-oxo-3-(pyridin-2-yl)propan-2-yl)-4-fluorobenzamide] | 0.05 to 1 µM | 0.05 to 1 µM | –
6 | COc1cc(NC(=O)[C@H](Cc2ccccc2)NC(=O)c2ccc(F)cc2)ccc1S(=O)(=O)NC12CC(C1)C2 [Compound I-148, (S)-N-(1-(4-(N-bicyclo[1.1.1]pentan-1-ylsulfamoyl)-3-methoxyphenylamino)-1-oxo-3-phenylpropan-2-yl)-4-fluorobenzamide] | 0.05 to 1 µM | < 0.05 µM | –
7 | O=C(NC1(C(=O)Nc2ccc(S(=O)(=O)NC34CC(C3)C4)cc2)Cc2ccccc2C1)c1ccc(F)cc1 [Compound I-102, N-(4-(N-bicyclo[1.1.1]pentan-1-ylsulfamoyl)phenyl)-2-(4-fluorobenzamido)-2,3-dihydro-1H-indene-2-carboxamide] | – | 0.05 to 1 µM | > 10 µM
8 | CCNS(=O)(=O)c1ccc(NC(=O)[C@H](Cc2ccccc2)NC(=O)c2ccc(F)cc2)nc1 [Compound I-117, (S)-N-(1-(5-(N-ethylsulfamoyl)pyridin-2-ylamino)-1-oxo-3-phenylpropan-2-yl)-4-fluorobenzamide] | 0.05 to 1 µM | < 0.05 µM | –
9 | O=C(N[C@@H](Cc1ccccc1)C(=O)Nc1ccc(S(=O)(=O)NCCN2CCOCC2)nc1)c1ccc(F)cc1 [Compound I-111, (S)-4-fluoro-N-(1-(6-(N-(2-morpholinoethyl)sulfamoyl)pyridin-3-ylamino)-1-oxo-3-phenylpropan-2-yl)benzamide] | 0.05 to 1 µM | 0.05 to 1 µM | –
10 | O=C(NC1(C(=O)Nc2ccc(S(=O)(=O)NC3COC3)cc2)Cc2ccccc2C1)c1ccc(F)cc1 [Compound I-101, 2-(4-fluorobenzamido)-N-(4-(N-oxetan-3-ylsulfamoyl)phenyl)-2,3-dihydro-1H-indene-2-carboxamide] | – | > 10 µM | > 10 µM
11 | CCNS(=O)(=O)c1ccc(NC(=O)[C@H](Cc2ccccn2)NC(=O)c2ccc(F)cc2)cc1 [Compound I-139, (S)-N-(1-(4-(N-ethylsulfamoyl)phenylamino)-1-oxo-3-(pyridin-2-yl)propan-2-yl)-4-fluorobenzamide] | 0.05 to 1 µM | 0.05 to 1 µM | –
12 | O=C(N[C@@H](Cc1ccccc1)C(=O)Nc1cccc2c(S(=O)(=O)NC3COC3)cccc12)c1ccc(F)cc1 [Compound I-131, (S)-4-fluoro-N-(1-(5-(N-oxetan-3-ylsulfamoyl)naphthalen-1-ylamino)-1-oxo-3-phenylpropan-2-yl)benzamide] | 0.05 to 1 µM | 0.05 to 1 µM | –
13 | CN(C(=O)c1ccc(F)cc1)[C@@H](Cc1cccnc1)C(=O)Nc1ccc(S(=O)(=O)NC2COC2)cc1 [Compound I-89, (S)-4-fluoro-N-methyl-N-(1-(4-(N-oxetan-3-ylsulfamoyl)phenylamino)-1-oxo-3-(pyridin-3-yl)propan-2-yl)benzamide] | – | 1 to 10 µM | > 10 µM
14 | CCNS(=O)(=O)c1ccc(NC(=O)[C@H](Cc2ccccc2)NC(=O)c2ccc(F)cc2)cn1 [Compound I-105, (S)-N-(1-(6-(N-ethylsulfamoyl)pyridin-3-ylamino)-1-oxo-3-phenylpropan-2-yl)-4-fluorobenzamide] | 0.05 to 1 µM | 0.05 to 1 µM | –
15 | COCCNS(=O)(=O)c1ccc(NC(=O)[C@H](Cc2ccccc2)NC(=O)c2ccc(F)cc2)cn1 [Compound I-108, (S)-4-fluoro-N-(1-(6-(N-(2-methoxyethyl)sulfamoyl)pyridin-3-ylamino)-1-oxo-3-phenylpropan-2-yl)benzamide] | 0.05 to 1 µM | 0.05 to 1 µM | –
16 | O=C(N[C@@H](Cc1ccccc1)C(=O)Nc1ccc(S(=O)(=O)NCCCN2CCOCC2)nc1)c1ccc(F)cc1 [Compound I-112, (S)-4-fluoro-N-(1-(6-(N-(3-morpholinopropyl)sulfamoyl)pyridin-3-ylamino)-1-oxo-3-phenylpropan-2-yl)benzamide] | 0.05 to 1 µM | 0.05 to 1 µM | –
17 | CN(C(=O)c1ccc(F)cc1)[C@@H](Cc1ccccc1)C(=O)Nc1ccc(S(=O)(=O)NC23CC(C2)C3)cc1 [Compound I-72, (S)-N-(1-(4-(N-bicyclo[1.1.1]pentan-1-ylsulfamoyl)phenylamino)-1-oxo-3-phenylpropan-2-yl)-4-fluoro-N-methylbenzamide] | 1 to 10 µM | 1 to 10 µM | –
18 | O=C(N[C@@H](Cc1ccccc1)C(=O)Nc1ccc(S(=O)(=O)NC23CC(C2)C3)cc1)c1ccc(F)cn1 [Compound I-73, (S)-N-(1-(4-(N-bicyclo[1.1.1]pentan-1-ylsulfamoyl)phenylamino)-1-oxo-3-phenylpropan-2-yl)-5-fluoropicolinamide] | 0.05 to 1 µM | < 0.05 µM | –

Results, then the molecule that gave them:

Row | IC50 [1, 2] | IC50 (USP30) | IC50 [1, 3] | SMILES
19 | 0.05 to 1 µM | 0.05 to 1 µM | – | CC(C)(C)NS(=O)(=O)c1ccc(NC(=O)[C@H](Cc2ccccc2)NC(=O)c2cccnc2)cc1 [Compound I-87, (S)-N-(1-(4-(N-tert-butylsulfamoyl)phenylamino)-1-oxo-3-phenylpropan-2-yl)nicotinamide]
20 | – | < 0.05 µM | < 0.05 µM | CC(C)(CF)NS(=O)(=O)c1ccc(NC(=O)[C@H](Cc2ccccc2)NC(=O)c2ccc(F)cc2)cc1 [Compound I-10, (S)-4-Fluoro-N-(1-(4-(N-(1-fluoro-2-methylpropan-2-yl)sulfamoyl)phenylamino)-1-oxo-3-phenylpropan-2-yl)benzamide]
21 | 0.05 to 1 µM | 1 to 10 µM | – | CN(C)CCNS(=O)(=O)c1ccc(NC(=O)[C@H](Cc2ccccc2)NC(=O)c2ccc(F)cc2)cc1 [Compound I-133, (S)-N-(1-(4-(N-(2-(dimethylamino)ethyl)sulfamoyl)phenylamino)-1-oxo-3-phenylpropan-2-yl)-4-fluorobenzamide]
22 | – | < 0.05 µM | < 0.05 µM | COCC(C)(C)NS(=O)(=O)c1ccc(NC(=O)[C@H](Cc2ccccc2)NC(=O)c2ccc(F)cc2)cc1 [Compound I-134, (S)-4-fluoro-N-(1-(4-(N-(1-methoxy-2-methylpropan-2-yl)sulfamoyl)phenylamino)-1-oxo-3-phenylpropan-2-yl)benzamide]
23 | 0.05 to 1 µM | < 0.05 µM | – | COCCNS(=O)(=O)c1ccc(NC(=O)[C@H](Cc2ccccc2)NC(=O)c2ccc(F)cc2)cc1 [Compound I-132, (S)-4-fluoro-N-(1-(4-(N-(2-methoxyethyl)sulfamoyl)phenylamino)-1-oxo-3-phenylpropan-2-yl)benzamide]
24 | – | < 0.05 µM | < 0.05 µM | CC1(NS(=O)(=O)c2ccc(NC(=O)[C@H](Cc3ccccc3)NC(=O)c3ccc(F)cc3)cc2)COC1 [Compound I-136, (S)-4-fluoro-N-(1-(4-(N-(3-methyloxetan-3-yl)sulfamoyl)phenylamino)-1-oxo-3-phenylpropan-2-yl)benzamide]
25 | – | < 0.05 µM | < 0.05 µM | CC(C)(NS(=O)(=O)c1ccc(NC(=O)[C@H](Cc2ccccc2)NC(=O)c2ccc(F)cc2)cc1)C(F)(F)F [Compound I-25, (S)-4-fluoro-N-(1-oxo-3-phenyl-1-(4-(N-(1,1,1-trifluoro-2-methylpropan-2-yl)sulfamoyl)phenylamino)propan-2-yl)benzamide]
26 | – | 0.05 to 1 µM | < 0.05 µM | Cc1cc(NC(=O)[C@H](Cc2ccccc2)NC(=O)c2ccc(F)cc2)ccc1S(=O)(=O)NC(C)(C)C [Compound I-96, (S)-N-(1-(4-(N-tert-butylsulfamoyl)-3-methylphenylamino)-1-oxo-3-phenylpropan-2-yl)-4-fluorobenzamide]
27 | 0.05 to 1 µM | 0.05 to 1 µM | – | CC(C)(CO)NS(=O)(=O)c1ccc(NC(=O)[C@H](Cc2ccccc2)NC(=O)c2ccc(F)cc2)cn1 [Compound I-116, (S)-4-fluoro-N-(1-(6-(N-(1-hydroxy-2-methylpropan-2-yl)sulfamoyl)pyridin-3-ylamino)-1-oxo-3-phenylpropan-2-yl)benzamide]
